Measurements: ChEMBL document CHEMBL1201862, “PubChem BioAssay data set” (2004)
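Interpolation was linear, between the two tested concentrations surrounding the appropriate level; five concentrations were tested over 48 hours in 96-well plates. At the GI50, growth is halved.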 Activity calls are given as the source filed them. No stated cut-off is given here; in the data, active = GI50 up to about 1.1 µM and inactive = higher.

What was measured:
Test in all cases: NCI anticancer screen, dose series, 48 h
HCC 2998 = test system: HCC 2998
HCT-116 = test system: HCT-116
HCT-15 = test system: HCT-15
Hs-578T = test system: Hs-578T
IGROV-1 = test system: IGROV-1
MDA-MB-435 = test system: MDA-MB-435
MOLT-4 = test system: MOLT-4
NCI-H23 = test system: NCI-H23
NCI-H460 = test system: NCI-H460
NCI-H522 = test system: NCI-H522
NCI/ADR-RES = test system: NCI/ADR-RES
PC-3 = test system: PC-3
SF-268 = test system: SF-268
SN12C = test system: SN12C
T47D = test system: T47D
UACC-257 = test system: UACC-257
K562 = test system: K562
RXF 393 = test system: RXF 393
SK-OV-3 = test system: SK-OV-3

| Structure (SMILES) | GI50 (HCC 2998) | GI50 (HCT-116) | GI50 (HCT-15) | GI50 (Hs-578T) | GI50 (IGROV-1) | GI50 (MDA-MB-435) | GI50 (MOLT-4) | GI50 (NCI-H23) | GI50 (NCI-H460) | GI50 (NCI-H522) | GI50 (NCI/ADR-RES) | GI50 (PC-3) | GI50 (SF-268) | GI50 (SN12C) | GI50 (T47D) | GI50 (UACC-257) | GI50 (K562) | GI50 (RXF 393) | GI50 (SK-OV-3) |
| --- | --- | --- | --- | --- | --- | --- | --- | --- | --- | --- | --- | --- | --- | --- | --- | --- | --- | --- | --- |
| CCCOC(=O)NC(C)C(=O)NC(CCC(=O)NC(CCCC(N)C(=O)O)C(=O)NC(C)C(=O)O)C(=O)O (configuration not stated) | 17.1 µM (inactive) | 34.4 µM (inactive) | 18.1 µM | 15.7 µM (inactive) | 62.2 µM (inactive) | 56.8 µM (inactive) | 23 µM (inactive) | > 100 µM (inactive) | 38.7 µM (inactive) | 26.8 µM (inactive) | 19.2 µM (inactive) | 23.9 µM (inactive) | 16.7 µM (inactive) | 50.8 µM (inactive) | 18.3 µM (inactive) | > 10 µM (inactive) | – | – | – |
| CNc1ccc(C(=O)CC(O)CCC(C)C2OC(=O)CC(O)CC(=O)CC(O)CC(O)CC(O)CC(O)CC3(O)CC(O)C(C(=O)N4CCOCC4)C(CC(OC4OC(C)C(O)C(N)C4O)\C=C/C=C\C=C/C=C/C=C/C=C\C=C/C2C)O3)cc1 (configuration not stated) | 0.374 µM (active) | 0.504 µM (active) | 0.308 µM | 0.294 µM (active) | 0.244 µM (active) | 0.281 µM (active) | 0.399 µM (active) | 0.329 µM (active) | 0.27 µM (active) | 0.244 µM (active) | 0.43 µM (active) | 0.355 µM (active) | 0.218 µM (active) | 0.229 µM (active) | – | 0.185 µM (active) | 0.378 µM (active) | 0.318 µM (active) | 0.418 µM (active) |
| COc1ccc2c3c1O[C@H]1C(OC)C=CC4C(C2)N(Cc2cccs2)CCC341 (some centres not stated) | > 100 µM (inactive) | 49.2 µM (inactive) | 55.2 µM | > 100 µM (inactive) | > 100 µM (inactive) | 41.5 µM (inactive) | > 100 µM (inactive) | 38.8 µM (inactive) | > 100 µM (inactive) | > 100 µM (inactive) | 33.7 µM (inactive) | – | > 100 µM (inactive) | > 100 µM (inactive) | – | 44.4 µM (inactive) | 51.6 µM (inactive) | – | > 100 µM (inactive) |
| CC(=O)Nc1ccc(NC(=O)c2c(Cl)c(Cl)c(Cl)c(Cl)c2-c2nc3ccccc3[nH]2)cc1 | 33.6 µM (inactive) | 32.1 µM (inactive) | 85.1 µM | 77.4 µM (inactive) | 20.5 µM (inactive) | 35.1 µM (inactive) | 21.5 µM (inactive) | 32.5 µM (inactive) | 24.7 µM (inactive) | 36.7 µM (inactive) | – | 44.7 µM (inactive) | 53.5 µM (inactive) | 35.4 µM (inactive) | 25.7 µM (inactive) | 40.1 µM (inactive) | 27.5 µM (inactive) | 29.4 µM (inactive) | 63.4 µM (inactive) |
| OCC1CCCC1O (configuration not stated) | > 100 µM (inactive) | > 100 µM (inactive) | > 100 µM | – | > 100 µM (inactive) | > 100 µM (inactive) | > 100 µM (inactive) | > 100 µM (inactive) | > 100 µM (inactive) | > 100 µM (inactive) | > 100 µM (inactive) | > 100 µM (inactive) | > 100 µM (inactive) | > 100 µM (inactive) | > 100 µM (inactive) | > 100 µM (inactive) | > 100 µM (inactive) | > 100 µM (inactive) | – |
| CCNC1=Nc2ccc(Cl)cc2C(c2ccccc2)=NN1 | 18.7 µM (inactive) | – | 16.9 µM | – | 22.4 µM (inactive) | – | 25.2 µM (inactive) | 27.5 µM (inactive) | – | 14.6 µM (inactive) | – | – | 31.3 µM (inactive) | 32.4 µM (inactive) | – | 18 µM (inactive) | 6.38 µM (inactive) | 25.5 µM (inactive) | 37.1 µM (inactive) |
| COc1ccc(NC(C)=O)cc1N1C(=O)/C(=C\c2cc(OC)c(OC)c(OC)c2)SC1c1ccccc1 (configuration not stated) | > 100 µM (inactive) | 30 µM (inactive) | 38.1 µM | – | 23.8 µM (inactive) | 36 µM (inactive) | 19.3 µM (inactive) | 72.8 µM (inactive) | 43.2 µM (inactive) | 28.6 µM (inactive) | 45.6 µM (inactive) | 31.5 µM (inactive) | – | 40.2 µM (inactive) | 33.5 µM (inactive) | 67.9 µM (inactive) | 30.9 µM (inactive) | 33.5 µM (inactive) | 82.2 µM (inactive) |
| O=C(NC(Cc1c[nH]c2ccccc12)C(=O)O)/C(=C/c1ccccc1O)NC(=O)c1ccccc1 (configuration not stated) | 42.2 µM (inactive) | 42.6 µM (inactive) | 25.6 µM | 24.6 µM (inactive) | 19.2 µM (inactive) | 18.9 µM (inactive) | > 100 µM (inactive) | 51.6 µM (inactive) | 33.2 µM (inactive) | 20.4 µM (inactive) | 13.9 µM (inactive) | – | 17.6 µM (inactive) | 24.7 µM (inactive) | 12.1 µM (inactive) | > 100 µM (inactive) | > 100 µM (inactive) | 28.5 µM (inactive) | 22.3 µM (inactive) |
